# Source: PubChem BioAssay (NCI)
#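 A five-concentration, 48-hour dose response in 96-well plates underlies each endpoint, interpolated linearly between surrounding concentrations. Abbreviation: GI50, concentration required for 50% inhibition of growth. TGI: concentration producing complete growth inhibition.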
# What was measured:
# Assay in all cases: growth of human tumour cells (NCI), 48 h
# RPMI-8226 leukemia = system: RPMI-8226 leukemia
# SN12C renal = system: SN12C renal
# SK-MEL-2 melanoma = system: SK-MEL-2 melanoma
# LOX IMVI melanoma = system: LOX IMVI melanoma
# HL-60(TB) leukemia = system: HL-60(TB) leukemia
# UACC-62 melanoma = system: UACC-62 melanoma
# RXF 393 renal = system: RXF 393 renal
# MOLT-4 leukemia = system: MOLT-4 leukemia
# NCI-H226 lung = system: NCI-H226 lung
# TK-10 renal = system: TK-10 renal
# OVCAR-5 ovarian = system: OVCAR-5 ovarian
# NCI-H522 lung = system: NCI-H522 lung
# SK-OV-3 ovarian = system: SK-OV-3 ovarian
# DU-145 prostate = system: DU-145 prostate
# MALME-3M melanoma = system: MALME-3M melanoma
# HCT-15 colon = system: HCT-15 colon
# MDA-MB-468 breast = system: MDA-MB-468 breast
# CAKI-1 renal = system: CAKI-1 renal
# OVCAR-3 ovarian = system: OVCAR-3 ovarian
# UO-31 renal = system: UO-31 renal
# A549 NSCLC = system: A549 NSCLC
# BT-549 breast = system: BT-549 breast
# K-562 leukemia = system: K-562 leukemia
# CCRF-CEM leukemia = system: CCRF-CEM leukemia
# HS 578T breast = system: HS 578T breast
# OVCAR-8 ovarian = system: OVCAR-8 ovarian
# SW-620 colon = system: SW-620 colon
# U251 CNS = system: U251 CNS
# ACHN renal = system: ACHN renal
# SF-539 CNS = system: SF-539 CNS
# T-47D breast = system: T-47D breast
# KM12 colon = system: KM12 colon
# SNB-75 CNS = system: SNB-75 CNS
# HCC-2998 colon = system: HCC-2998 colon
# HCT-116 colon = system: HCT-116 colon
# M14 melanoma = system: M14 melanoma
# A498 renal = system: A498 renal
# SR leukemia = system: SR leukemia
# MCF7 breast = system: MCF7 breast
# HOP-62 NSCLC = system: HOP-62 NSCLC
# IGROV1 ovarian = system: IGROV1 ovarian
# PC-3 prostate = system: PC-3 prostate
# SK-MEL-5 melanoma = system: SK-MEL-5 melanoma
# HT29 colon = system: HT29 colon
# UACC-257 melanoma = system: UACC-257 melanoma
# SK-MEL-28 melanoma = system: SK-MEL-28 melanoma
# OVCAR-4 ovarian = system: OVCAR-4 ovarian
# EKVX NSCLC = system: EKVX NSCLC
# 786-0 renal = system: 786-0 renal
# NCI-H460 lung = system: NCI-H460 lung
# MDA-MB-231 breast = system: MDA-MB-231 breast
# SF-268 CNS = system: SF-268 CNS
# MDA-MB-435 = system: MDA-MB-435
# SNB-19 CNS = system: SNB-19 CNS
# COLO 205 colon = system: COLO 205 colon
# HOP-92 NSCLC = system: HOP-92 NSCLC
# SF-295 CNS = system: SF-295 CNS
# NCI/ADR-RES ovarian = system: NCI/ADR-RES ovarian
# NCI-H23 lung = system: NCI-H23 lung
structure (smiles),measurement,setting,value
O=C(CSc1nnc(-c2ccc(-c3nc4ccc(Cl)cc4[nH]3)cc2)o1)Nc1ccc(Br)cc1,GI50,RPMI-8226 leukemia,5.05 µM
same,TGI,RPMI-8226 leukemia,26.3 µM
same,GI50,SN12C renal,1.74 µM
same,TGI,SN12C renal,4.09 µM
same,GI50,SK-MEL-2 melanoma,2.98 µM
same,TGI,SK-MEL-2 melanoma,11.1 µM
same,GI50,LOX IMVI melanoma,1.42 µM
same,TGI,LOX IMVI melanoma,2.8 µM
same,GI50,HL-60(TB) leukemia,2.87 µM
same,TGI,HL-60(TB) leukemia,11.5 µM
same,GI50,UACC-62 melanoma,1.84 µM
same,TGI,UACC-62 melanoma,4.61 µM
same,GI50,RXF 393 renal,1.98 µM
same,TGI,RXF 393 renal,5.15 µM
same,GI50,MOLT-4 leukemia,2.99 µM
same,TGI,MOLT-4 leukemia,14.2 µM
same,GI50,NCI-H226 lung,1.62 µM
same,TGI,NCI-H226 lung,4.58 µM
same,GI50,TK-10 renal,16.5 µM
same,TGI,TK-10 renal,33.4 µM
same,GI50,OVCAR-5 ovarian,3.71 µM
same,TGI,OVCAR-5 ovarian,17.5 µM
same,GI50,NCI-H522 lung,1.84 µM
same,TGI,NCI-H522 lung,5.01 µM
same,GI50,SK-OV-3 ovarian,8.75 µM
same,TGI,SK-OV-3 ovarian,27.5 µM
same,GI50,DU-145 prostate,4.56 µM
same,TGI,DU-145 prostate,19.3 µM
same,GI50,MALME-3M melanoma,1.94 µM
same,TGI,MALME-3M melanoma,4.84 µM
same,GI50,HCT-15 colon,2.94 µM
same,TGI,HCT-15 colon,13.6 µM
same,GI50,MDA-MB-468 breast,2.66 µM
same,TGI,MDA-MB-468 breast,9.97 µM
same,GI50,CAKI-1 renal,2.34 µM
same,TGI,CAKI-1 renal,7.01 µM
same,GI50,OVCAR-3 ovarian,3.72 µM
same,TGI,OVCAR-3 ovarian,11.7 µM
same,GI50,UO-31 renal,4.03 µM
same,TGI,UO-31 renal,16.5 µM
same,GI50,A549 NSCLC,1.79 µM
same,TGI,A549 NSCLC,3.95 µM
same,GI50,BT-549 breast,2.95 µM
same,TGI,BT-549 breast,8.55 µM
same,GI50,K-562 leukemia,2.49 µM
same,TGI,K-562 leukemia,11.8 µM
same,GI50,CCRF-CEM leukemia,2.31 µM
same,TGI,CCRF-CEM leukemia,10.4 µM
same,GI50,HS 578T breast,2.62 µM
same,TGI,HS 578T breast,9.96 µM
same,GI50,OVCAR-8 ovarian,2.17 µM
same,TGI,OVCAR-8 ovarian,5.63 µM
same,GI50,SW-620 colon,4.3 µM
same,TGI,SW-620 colon,28.5 µM
same,GI50,U251 CNS,1.88 µM
same,TGI,U251 CNS,3.82 µM
same,GI50,ACHN renal,2.4 µM
same,TGI,ACHN renal,6.78 µM
same,GI50,SF-539 CNS,1.65 µM
same,TGI,SF-539 CNS,3.08 µM
same,GI50,T-47D breast,3.78 µM
same,TGI,T-47D breast,20.2 µM
same,GI50,KM12 colon,6 µM
same,TGI,KM12 colon,31.8 µM
same,GI50,SNB-75 CNS,2.39 µM
same,TGI,SNB-75 CNS,8.71 µM
same,GI50,HCC-2998 colon,15.3 µM
same,TGI,HCC-2998 colon,46.5 µM
same,GI50,HCT-116 colon,3.22 µM
same,TGI,HCT-116 colon,14.4 µM
same,GI50,M14 melanoma,3.06 µM
same,TGI,M14 melanoma,11.1 µM
same,GI50,A498 renal,17.3 µM
same,TGI,A498 renal,34.3 µM
same,GI50,SR leukemia,1.67 µM
same,TGI,SR leukemia,> 100 µM
same,GI50,MCF7 breast,3.02 µM
same,TGI,MCF7 breast,12.9 µM
same,GI50,HOP-62 NSCLC,1.81 µM
same,TGI,HOP-62 NSCLC,3.96 µM
same,GI50,IGROV1 ovarian,8.27 µM
same,TGI,IGROV1 ovarian,21.5 µM
same,GI50,PC-3 prostate,2.1 µM
same,TGI,PC-3 prostate,5.78 µM
same,GI50,SK-MEL-5 melanoma,2.98 µM
same,TGI,SK-MEL-5 melanoma,11.1 µM
same,GI50,HT29 colon,3.42 µM
same,TGI,HT29 colon,13.3 µM
same,GI50,UACC-257 melanoma,2.97 µM
same,TGI,UACC-257 melanoma,12.8 µM
same,GI50,SK-MEL-28 melanoma,1.77 µM
same,TGI,SK-MEL-28 melanoma,3.81 µM
same,GI50,OVCAR-4 ovarian,4.81 µM
same,TGI,OVCAR-4 ovarian,19.3 µM
same,GI50,EKVX NSCLC,3.33 µM
same,TGI,EKVX NSCLC,14.6 µM
same,GI50,786-0 renal,2.23 µM
same,TGI,786-0 renal,5.5 µM
same,GI50,NCI-H460 lung,2.34 µM
same,TGI,NCI-H460 lung,6.32 µM
same,GI50,MDA-MB-231 breast,1.76 µM
same,TGI,MDA-MB-231 breast,3.59 µM
same,GI50,SF-268 CNS,3.45 µM
same,TGI,SF-268 CNS,16.8 µM
same,GI50,MDA-MB-435,3.84 µM
same,TGI,MDA-MB-435,14.3 µM
same,GI50,SNB-19 CNS,3.76 µM
same,TGI,SNB-19 CNS,14.3 µM
same,GI50,COLO 205 colon,24.5 µM
same,TGI,COLO 205 colon,> 100 µM
same,GI50,HOP-92 NSCLC,2.43 µM
same,TGI,HOP-92 NSCLC,9.03 µM
same,GI50,SF-295 CNS,1.93 µM
same,TGI,SF-295 CNS,4.99 µM
same,GI50,NCI/ADR-RES ovarian,4.93 µM
same,TGI,NCI/ADR-RES ovarian,30.3 µM
same,GI50,NCI-H23 lung,2 µM
same,TGI,NCI-H23 lung,4.49 µM
